Tests used:
[1] = target: T1, FXR: RXRα (Homo sapiens, UniProt P19793+Q96RI1); assay: Transient transfection luciferase assay in HEK293 cells (FXRE); format: cell-based; settings: HEK293, 24 h
T1 construct: expressed in transfected cells; host or cells: HEK293
Description: (§1) HEK293 cells are transiently transfected by Lipo2000 respectively with RXRα, PPARγ, FXR, and LXRα plasmids plus pGL3-RXRE luciferase vector and renilla luciferase vector for 5 hours. Cells are then incubated with indicated concentrations of compounds for another 24 h and finally lysed. Luciferase activities are measured using Dual Luciferase Assay System kit. Rut dose-dependently activates (a) RXRα:RXRα and (b) PPARγ:RXRα activities. Rut has no effects on (c) FXR: RXRα and (d) LXRα:RXRα activities. Data are presented as means ± s.e.m (*P<0.05, **P<0.01) from three independent experiments.
(§2) HEK293 cells are transfected with luciferase reporter plus Renilla luciferase vector and other plasmids if needed for 5 hours, and cells are then incubated with indicated concentrations of compounds for another 24 h. Finally cells are lysed and luciferase activities are measured using Dual Luciferase Assay System kit. The results are presented as the fold activation relative to untreated cells after normalization with Renilla luciferase values. Each experiment is repeated at least twice, with each sample analyzed in triplicates.

[2] = test system: 3T3-L1 adipocytes; assay: 2-Deoxyglucose uptake in 3T3-L1 adipocytes; format: cell-based
Description: 3T3-L1 adipocytes are fully differentiated (the 10th day after MDI stimulation) and seeded into 24-well plate. After incubation with compounds in serum-free medium containing 0.5% BSA for 8 hours, medium is changed to Krebs buffer containing […] insulin and incubated for 30 minutes. In the last 5 minutes, cells are incubated with 2-[^3H]-deoxy-D-glucose. The glucose uptake is stopped by ice-cold PBS, and the cells are then lysed with 0.1% Triton. Finally the radioactivity is calculated by a scintillation counter. Cytochalasin B is used to measure nonspecific uptake, and the value is subtracted from all the data. Radioactivity is normalized by total protein concentration that is measured by BCA kit.

[3] = test system: 3T3-L1 adipocytes; assay: GLUT4 translocation by immunofluorescence in 3T3-L1 adipocytes; format: cell-based; settings: Rut 20 µM, insulin 17 nM
Description: For GLUT4 translocation assay in 3T3-L1 adipocytes, the cells are fully differentiated (the 10th day after MDI stimulation), and seeded onto 24-well plates. After cultured in serum-free medium for 8 h, cells are incubated with Rut for 2 h and insulin for 10 min, and then rinsed with PBS, fixed with 4% formaldehyde for 10 min, and permeated with 0.2% Triton X-100 in PBS for 10 min. Cells are subsequently washed with PBS and 3% bovine serum albumin for 20 min, and sequentially incubated with primary antibody (Abcam GLUT4 antibody) for 1 h and secondary antibody (Alexa Fluor 488 conjuncted anti-mouse antibody) for another 1 h. Finally, the glass-slips are washed with PBS for examination using OLYMPUS FV-1000 confocal microscope. All pictures are made in the same time experiment.

[4] = test system: C57/BL6 DIO male mice; assay: Diet-induced obese (DIO) mice model: fasting plasma glucose, OGTT, ITT, tolerability; format: in vivo
Description: All animals receive humane care, and the experimental procedures are performed according to the institutional ethical guidelines on animal care. C57/BL6 male mice are obtained from Shanghai SLAC Laboratory Animal Co. Ltd, and maintained under the temperature controlled at 25°C with a 12 h light-dark cycle. Eight-week-old male mice are fed regular chow or high fat diet (HFD, D12492i, from Research Diets Inc.) for 12 weeks. The DIO mice and normal lean mice are grouped randomly, and each group contains 7 mice. […] Individual body weight and fasting plasma glucose are measured weekly. Averaged daily food intake is measured twice a week. At the termination of the study, mice are dissected, and the weight of tissues (liver, kidney, spleen, heart, perirenal fat, and epididymis fat) is determined.
Male mice treated with compounds for 8 weeks are used for oral glucose tolerance test. After 6 h fasting, plasma glucose levels are measured and glucose (2 g/kg) is loaded. Blood samples are taken from the tail vein at different time points (0, 30, 90, and 120 min). In insulin tolerance tests, after 6 h fasting, plasma glucose levels are measured and insulin (1 U/kg) is administered by IP injection. Blood samples are taken at indicated time points (0, 15, 30, 45, 60, 90, and 120 min). Blood glucose levels are measured by ACCU-CHEK Active blood sugar testmeter (Roche). Statistical evaluation is performed via two-way ANOVA. Significant difference at P<0.05: *, P<0.01: **.

[5] = test system: epididymis fat tissues; assay: Gene and protein expression in epididymis fat tissues of treated DIO mice; format: in vivo
Description: Four mice in each group are employed for the determination of gene expression. The total RNA is extracted from epididymis fat tissues (75 mg/mice) with TRIzol reagent, and the cDNA is synthesized using PrimeScript™ RT reagent Kit. Real-time PCR is performed using SYBR Green Real time PCR master mix on DNA Engine Opticon 2 System. The PCR cycle is 94°C for 20 seconds, 60°C for 30 seconds and 72°C for 30 seconds. The primer pairs for the related genes are described in Supplementary Table S2. The epididymis fat is lysed and the supernatant is separated by SDS-PAGE and transferred to polyvinylidene difluoride membranes (Millipore). Membranes are incubated in blocking buffer (BB) containing 5% skimmed milk with 0.5% Tween 20 in Tris-buffered saline and immunoblotted with the related antibodies overnight at 4°C in BB. After incubation, membranes are washed and incubated with horseradish peroxidase-labeled secondary antibodies (Amersham), and then the proteins are detected by SuperSignal West Pico chemiluminescent substrate (Pierce).

[6] = target: T2, LXRα:RXRα (Homo sapiens, UniProt P19793+Q13133); assay: Transient transfection luciferase assay in HEK293 cells (LXRE); format: cell-based; settings: HEK293, 24 h
T2 construct: expressed in transfected cells; host or cells: HEK293
Description: as §1, §2

T2 sequence (Q13133 whole entry): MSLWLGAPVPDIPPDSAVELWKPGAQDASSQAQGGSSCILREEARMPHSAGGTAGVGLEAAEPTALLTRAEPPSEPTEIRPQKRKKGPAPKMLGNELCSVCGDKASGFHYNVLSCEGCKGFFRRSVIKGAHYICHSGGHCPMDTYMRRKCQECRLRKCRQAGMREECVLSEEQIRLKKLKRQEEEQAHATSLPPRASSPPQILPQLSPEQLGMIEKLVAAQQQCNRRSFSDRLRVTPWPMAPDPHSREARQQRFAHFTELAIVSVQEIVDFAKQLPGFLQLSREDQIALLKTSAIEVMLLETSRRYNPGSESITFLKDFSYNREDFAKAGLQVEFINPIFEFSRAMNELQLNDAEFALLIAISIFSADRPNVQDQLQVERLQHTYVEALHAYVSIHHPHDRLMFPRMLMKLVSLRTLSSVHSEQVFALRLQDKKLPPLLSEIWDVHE
T2 sequence (P19793 whole entry): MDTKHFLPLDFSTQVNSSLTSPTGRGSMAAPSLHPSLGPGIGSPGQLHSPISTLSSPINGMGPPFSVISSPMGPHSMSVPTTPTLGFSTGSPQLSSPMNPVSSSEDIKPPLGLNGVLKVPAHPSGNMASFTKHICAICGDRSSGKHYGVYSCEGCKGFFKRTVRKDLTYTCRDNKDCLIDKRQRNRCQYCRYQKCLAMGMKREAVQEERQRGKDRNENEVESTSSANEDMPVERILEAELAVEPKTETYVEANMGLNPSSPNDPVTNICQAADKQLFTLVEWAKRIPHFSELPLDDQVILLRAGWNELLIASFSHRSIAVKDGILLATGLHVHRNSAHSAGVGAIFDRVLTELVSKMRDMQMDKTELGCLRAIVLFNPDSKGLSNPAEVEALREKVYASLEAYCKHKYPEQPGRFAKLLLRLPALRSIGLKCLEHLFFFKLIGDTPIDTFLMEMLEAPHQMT
T1 sequence (Q96RI1 whole entry): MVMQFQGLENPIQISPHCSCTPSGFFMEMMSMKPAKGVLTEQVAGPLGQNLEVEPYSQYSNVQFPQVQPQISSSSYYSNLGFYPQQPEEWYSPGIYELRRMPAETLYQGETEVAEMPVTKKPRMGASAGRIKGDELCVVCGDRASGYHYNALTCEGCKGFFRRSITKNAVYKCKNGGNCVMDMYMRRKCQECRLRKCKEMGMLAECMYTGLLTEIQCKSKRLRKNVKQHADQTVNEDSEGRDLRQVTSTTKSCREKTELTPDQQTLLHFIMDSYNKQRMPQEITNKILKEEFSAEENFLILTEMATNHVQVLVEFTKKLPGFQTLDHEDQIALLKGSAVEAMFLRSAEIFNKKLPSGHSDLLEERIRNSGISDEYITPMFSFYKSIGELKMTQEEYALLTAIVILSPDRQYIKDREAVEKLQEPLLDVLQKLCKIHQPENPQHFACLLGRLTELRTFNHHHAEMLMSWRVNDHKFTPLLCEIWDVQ
T1 sequence (P19793 whole entry): as the sequence (P19793 whole entry) above

C=CC(C)(C)c1cc2cc3c(cc2oc1=O)O[C@H](C(C)(C)OC(C)=O)C3 [(+)-Rutamarin]
activity of FXR-response element (FXRE) [1]: without influencing | glucose uptake without insulin stimulation ([2]; Rut 20 µM, 8 hours): improves glucose uptake | insulin-induced glucose uptake ([2]; insulin 17 nM, Rut 5–25 µM, C2 10 µM): dose-dependently enhances | GLUT4 translocation in fully differentiated 3T3-L1 adipocytes [3]: significantly induces | fasting plasma glucose level ([4]; DIO mice, Rut 2 mg/kg IP, 2 weeks): efficiently improve | fasting plasma glucose vs control obese group ([4]; DIO mice, Rut 10 mg/kg IP daily, 8 weeks): significantly lower | insulin tolerance test, glucose elimination vs vehicle ([4]; DIO mice, Rut 10 mg/kg, insulin 1 U/kg IP): eliminate glucose at a faster rate | plasma glucose after glucose challenge (glucose tolerance test) vs vehicle ([4]; DIO mice, Rut 10 mg/kg, oral glucose 2 g/kg): much lower | food consumption vs vehicle-treated mice ([4]; Rut 10 mg/kg IP): not significantly different | body weights ([4]; Rut 10 mg/kg IP, same course in vehicle-treated mice): slightly decrease in the first four weeks | insulin tolerance test vs vehicle ([4]; lean mice, Rut 10 mg/kg): no obvious difference | fasting plasma glucose vs vehicle ([4]; lean mice, Rut 10 mg/kg IP daily, 8 weeks): no obvious difference | insulin receptor (IR) phosphorylation in epididymis fat tissues ([5]; Rut 2 mg/kg IP, 2 weeks): efficiently improve | mRNA levels of PPARγ:RXRα-regulated genes (pepck, GLUT4 and adiponectin) ([5]; Rut 10 mg/kg, epididymis fat tissues): efficiently increase | GLUT4 expression in epididymis fat tissues ([5]; Rut 2 and 10 mg/kg): increases GLUT4 expression | activity of LXR-response element (LXRE) [6]: without influencing

Reference: paper PMC3288053 (PLoS ONE, 2012)
